Results taken from patent publication US6875758B2, “Method of treating hyperlipidemic and hyperglycemic conditions in mammals using pregnadienols and pregnadienones” (Council of Scientific & Industrial Research, priority 1999, dated 2005).

How the values were obtained:
glucose loaded rats = test: Hypoglycemic activity in glucose loaded rats; assay type: in vivo, albino rats (Charles Foster strain); conditions: for Blood Glucose Level: 100 mg/kg p.o. + glucose 2.0 g/kg; for % inhibition compared to control (blood glucose): 100 mg/kg
Procedure: The experiments were carried out with albino rats (Charles Foster strain) of either sex weighing 150-160 g. They were fed on laboratory diet prepared by M/s Lipton India Ltd. and maintained under 12 hr. light/dark cycle at 25±2° C.
The animals were divided into eight groups, each of six rats; group I was given 1% gum acacia (0.1 ml/100 g body weight) intragastrically (p.o.) and the group II were given 3β-hydroxypregna-5,16-dien-20-one (2) in 1% gum acacia. Animals of group III were given the standard antidiabetic drug, tolbutamide in the similar fashion. 2.0 g/kg glucose was given p.o. to all the rats along with the vehicle/Compound/Standard antidiabetic drug. Blood samples were taken from retroorbital plexus at periodic intervals. Glucose levels in the blood samples were measured by glucose oxidase method [Bergmeyer and Benut, 1963 cited in “Methods of Enzymatic Analysis” ed. H. Bergmeyer, Verlag Chemie, GmBH, Weinheim, Beroster, pp123, Academic press, New York].

[1] = tested on: hyperlipidemic rats (high fat diet); test: Hypolipidemic activity in diet induced hyperlipidemic rats; assay type: in vivo; conditions: for LDL-Cholesterol: calculated
Procedure: Twenty three normal male rats average weight 110-120 g were taken for study and were divided into four groups. Group l: animals received special diet and 3β-hydroxypregna-5,16-dien-20-one (2) 50 mg/kg p.o. in 1% gum acacia. Group II: animals received 3β-hydroxypregna-5,16-dien-20-one (2), 100 mg/kg p.o. in 1% gum acacia and special diet. Group III: animals received special fat diet and 1% gum acacia and served as control. Group IV: animals were fed with stock diet and served as normal control. All animals were sacrificed at the end of 36 days. Blood was drawn from the tail at 10 days and from the aorta at the time of sacrifice for estimation of serum cholesterol, triglycerides and HDL-cholesterol. LDL-cholesterol was calculated as described. [Roschlau, P. In: Methods of Enzymatic Analysis 4th ed., H. U. Bergmeyer, Ed (Academic Press, New York) 1975 p 1890; Wahlefield, W. A. In: Methods of Enzymatic Analysis, 4th ed.; H. U. Bergmeyer, Ed. (Academic Press, New York) 1974 p 1831.]

[2] = tested on: cholesterol fed hyperlipidemic rats; test: Lipid peroxidation in cholesterol fed hyperlipidemic rats; assay type: in vivo
normal rats = test: Hypolipidemic activity in normal rats; assay type: in vivo; conditions: 50 mg/kg
Procedure: In normal rats, 3β-hydroxypregna-5,16-dien-20one (2), at 50 mg/kg produced a significant lowering of serum cholesterol and triglycerides as describe in Table-3 below.

[3] = tested on: endometrial proliferation; test: Clauberg assay, endometrial proliferation on McPhail scale; assay type: in vivo; conditions: 200 mg/kg dose
Procedure: The progestational activity was also tested in vivo by Clauberg assay method. The degree of endometrial proliferation was estimated on the McPhail scale where 3′ or 4′ was considered as a full progestational effect.

[4] = tested on: isoproterneol induced myocardial necrosis in rat; test: Isoproterneol induced myocardial necrosis in rats; assay type: in vivo; conditions: isoproterneol 85 mg/kg + drug 25 mg/kg p.o.
Text: The underlying cause of myocardial infarction is believed to be the progressive deposition of lipids and fibrotic material into the arterial wall. These pregnadienols and pregnadienous also provided cardiac protection as assessed in isoproterneol induced myocardial necrosis in rat model, which produces myocardial infarction due to an increased blood pressure and heart rate.

SMILES: CC(=O)C1=CC[C@H]2[C@@H]3CC=C4C[C@@H](O)CC[C@]4(C)[C@H]3CC[C@]12C [Compound 2, 3β-Hydroxypregna-5,16-dien-20-one]
- Maximum Blood Glucose Change (glucose loaded rats; 100 mg/kg p.o. + glucose): −18.7%
- Blood Glucose Level (glucose loaded rats; 0 min): 42.43 ± 1.64 mg/dL
- Blood Glucose Level (glucose loaded rats; 30 min): 76.15 ± 6.07 mg/dL
- Blood Glucose Level (glucose loaded rats; 60 min): 56.06 ± 4.65 mg/dL
- Blood Glucose Level (glucose loaded rats; 90 min): 55.06 ± 2.61 mg/dL
- Blood Glucose Level (glucose loaded rats; 120 min): 49.59 ± 1.66 mg/dL
- % inhibition compared to control (blood glucose) (glucose loaded rats; 30 min): (48) %
- % inhibition compared to control (blood glucose) (glucose loaded rats; 60 min): (55) %
- % inhibition compared to control (blood glucose) (glucose loaded rats; 90 min): (54) %
- % inhibition compared to control (blood glucose) (glucose loaded rats; 120 min): (34) %
- HDL-Cholesterol ([1]; 50 mg/kg + HFD, Day 0): 34.8 ± 5.8 mg %
- LDL-Cholesterol ([1]; 50 mg/kg + HFD, Day 0): 24.5 ± 14.2 mg %
- HDL-Cholesterol ([1]; 50 mg/kg + HFD, Day 36): 37.57 ± 2.8 mg %
- HDL-Cholesterol % Change ([1]; 50 mg/kg + HFD, Day 36): 181%
- LDL-Cholesterol ([1]; 50 mg/kg + HFD, Day 36): 123.87 ± 14.0 mg %
- Serum Cholesterol ([1]; 50 mg/kg p.o. + HFD, day 0): 69.1 ± 9.9 mg %
- Serum Triglycerides ([1]; 50 mg/kg p.o. + HFD, day 0): 48.8 ± 7.0 mg %
- Serum Cholesterol ([1]; 50 mg/kg p.o. + HFD, day 10): 212.4 ± 23.8 mg %
- Serum Cholesterol % Decrease (compared to group III, HFD) ([1]; 50 mg/kg p.o. + HFD, day 10): 16%
- Serum Cholesterol ([1]; 50 mg/kg p.o. + HFD, day 36): 165 ± 26.7 mg %
- Serum Cholesterol % Decrease (compared to group III, HFD) ([1]; 50 mg/kg p.o. + HFD, day 36): 31%
- Serum Triglycerides ([1]; 50 mg/kg p.o. + HFD, day 36): 61.5 ± 10.5 mg %
- Serum Triglycerides % Decrease (compared to group III, HFD) ([1]; 50 mg/kg p.o. + HFD, day 36): 55%
- HDL-Cholesterol ([1]; 100 mg/kg + HFD, Day 0): 43.4 ± 8.3 mg %
- LDL-Cholesterol ([1]; 100 mg/kg + HFD, Day 0): 10.02 ± 8.5 mg %
- HDL-Cholesterol ([1]; 100 mg/kg + HFD, Day 36): 47.2 ± 3.7 mg %
- HDL-Cholesterol % Change ([1]; 100 mg/kg + HFD, Day 36): 161%
- LDL-Cholesterol ([1]; 100 mg/kg + HFD, Day 36): 48.64 ± 5.1 mg %
- Serum Cholesterol ([1]; 100 mg/kg p.o. + HFD, day 0): 60.8 ± 10.3 mg %
- Serum Triglycerides ([1]; 100 mg/kg p.o. + HFD, day 0): 50 ± 7.1 mg %
- Serum Cholesterol ([1]; 100 mg/kg p.o. + HFD, day 10): 145.5 ± 10.6 mg %
- Serum Cholesterol % Decrease (compared to group III, HFD) ([1]; 100 mg/kg p.o. + HFD, day 10): 48%
- Serum Cholesterol ([1]; 100 mg/kg p.o. + HFD, day 36): 106.4 ± 4.6 mg %
- Serum Cholesterol % Decrease (compared to group III, HFD) ([1]; 100 mg/kg p.o. + HFD, day 36): 59%
- Serum Triglycerides ([1]; 100 mg/kg p.o. + HFD, day 36): 53.0 ± 7.5 mg %
- Serum Triglycerides % Decrease (compared to group III, HFD) ([1]; 100 mg/kg p.o. + HFD, day 36): 62%
- HDL lipid peroxides ([2]; cholesterol + drug 25 mg/kg): 125 ± 10 n mol MDA/dl
- HDL lipid peroxides % reversal as compared with cholesterol fed rats ([2]; cholesterol + drug 25 mg/kg): (−9) %
- LDL lipid peroxides ([2]; cholesterol + drug 25 mg/kg): 421 ± 20 n mol MDA/dl
- LDL lipid peroxides % reversal as compared with cholesterol fed rats ([2]; cholesterol + drug 25 mg/kg): (−30) %
- Liver lipid peroxides ([2]; cholesterol + drug 25 mg/kg): 212 ± 16 n mol MDA/g
- Liver lipid peroxides % reversal as compared with cholesterol fed rats ([2]; cholesterol + drug 25 mg/kg): (−23) %
- Serum lipid peroxides ([2]; cholesterol + drug 25 mg/kg): 931.5 ± 51 n mol MDA/dl
- Serum lipid peroxides % reversal as compared with cholesterol fed rats ([2]; cholesterol + drug 25 mg/kg): (−24) %
- VLDL lipid peroxides ([2]; cholesterol + drug 25 mg/kg): 310 ± 15 n mol MDA/dl
- VLDL lipid peroxides % reversal as compared with cholesterol fed rats ([2]; cholesterol + drug 25 mg/kg): (−18) %
- lipid peroxide levels in serum VLDL, LDL and liver (in words) ([2]; cholesterol fed animals, simultaneous treatment): significant reversal
- Serum Cholesterol (normal rats; 0 Days): 71.5 ± 1.8 mg %
- Serum Cholesterol (normal rats; 30 Days): 43.2 ± 2.9 mg %
- Serum Cholesterol % Fall (normal rats; 30 Days): 40%
- Serum Triglycerides (normal rats; 30 Days): 42.0 ± 2.8 mg %
- Serum Triglycerides % Fall compared to control (normal rats; 30 Days): 35%
- progestational activity [3]: did not exhibit any activity
- Heart Ca. - ATPase % Protection [4]: 30.2%
- Heart Glycogen % Protection [4]: 25.1%
- Heart Lipid peroxide % Protection [4]: 72.6%
- Heart Phospholipase % Protection [4]: 74.2%
- Serum Alkaline Phosphatase % Protection [4]: 24.0%
- Serum CPK % Protection [4]: 35.7%
- Serum GOT % Protection [4]: 27.0%
- Serum GPT % Protection [4]: 22.7%
